From paper PMC10150365 (Journal of Medicinal Chemistry, 2023)

What was measured:
[1] = target: T1, Glutamate, Metabotropic, mGlu5 (Homo sapiens, UniProt P41594); assay: Cerep SafetyScreen-87; format: binding; conditions: n=2
T1 construct: purchased Eurofins Cerep/Panlabs SafetyScreen-87

[2] = target: T2, Protein Tyrosine Kinase, Insulin Receptor (Homo sapiens, UniProt P06213); assay: Cerep SafetyScreen-87; format: biochemical; conditions: n=2
T2 construct: purchased Eurofins Cerep/Panlabs SafetyScreen-87

[3] = target: T3, Serotonin (5-Hydroxytryptamine) 5-HT2C (Homo sapiens, UniProt P28335); assay: Cerep SafetyScreen-87; format: binding; conditions: n=2
T3 construct: purchased Eurofins Cerep/Panlabs SafetyScreen-87

Estrogen ERα = target: T4, Estrogen ERα (Homo sapiens, UniProt P03372); assay: Cerep SafetyScreen-87; format: binding; conditions: n=2
T4 construct: purchased Eurofins Cerep/Panlabs SafetyScreen-87

Cannabinoid CB1 = target: T5, Cannabinoid CB1 (Homo sapiens, UniProt P21554); assay: Cerep SafetyScreen-87; format: binding; conditions: n=2
T5 construct: purchased Eurofins Cerep/Panlabs SafetyScreen-87

Melanocortin MC1 = target: T6, Melanocortin MC1 (Homo sapiens, UniProt Q01726); assay: Cerep SafetyScreen-87; format: binding; conditions: n=2
T6 construct: purchased Eurofins Cerep/Panlabs SafetyScreen-87

[4] = target: T7, Serotonin (5-Hydroxytryptamine) 5-HT1B (Homo sapiens, UniProt P28222); assay: Cerep SafetyScreen-87; format: binding; conditions: n=2
T7 construct: purchased Eurofins Cerep/Panlabs SafetyScreen-87

Adrenergic β2 = target: T8, Adrenergic β2 (Homo sapiens, UniProt P07550); assay: Cerep SafetyScreen-87; format: binding; conditions: n=2
T8 construct: purchased Eurofins Cerep/Panlabs SafetyScreen-87
T8 sequence (P07550 whole entry): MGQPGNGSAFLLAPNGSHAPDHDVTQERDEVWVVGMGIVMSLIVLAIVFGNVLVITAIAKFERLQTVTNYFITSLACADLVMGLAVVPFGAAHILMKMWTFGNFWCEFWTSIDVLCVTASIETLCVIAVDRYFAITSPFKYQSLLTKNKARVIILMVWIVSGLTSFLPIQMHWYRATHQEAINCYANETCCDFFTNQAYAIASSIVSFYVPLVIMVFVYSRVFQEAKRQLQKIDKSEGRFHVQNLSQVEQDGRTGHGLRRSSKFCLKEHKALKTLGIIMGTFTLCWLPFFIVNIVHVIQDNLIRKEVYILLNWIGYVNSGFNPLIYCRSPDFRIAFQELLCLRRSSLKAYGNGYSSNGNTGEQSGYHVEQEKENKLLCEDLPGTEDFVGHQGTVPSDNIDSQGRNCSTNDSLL

Opiate K (OP2, KOP) = target: T9, Opiate K (OP2, KOP) (Homo sapiens, UniProt P41145); assay: Cerep SafetyScreen-87; format: binding; conditions: n=2
T9 construct: purchased Eurofins Cerep/Panlabs SafetyScreen-87

[5] = target: T10, Cholecystokinin CCK1 (CCKA) (Homo sapiens, UniProt P32238); assay: Cerep SafetyScreen-87; format: binding; conditions: n=2
T10 construct: purchased Eurofins Cerep/Panlabs SafetyScreen-87

Histamine H1 = target: T11, Histamine H1 (Homo sapiens, UniProt P35367); assay: Cerep SafetyScreen-87; format: binding; conditions: n=2
T11 construct: purchased Eurofins Cerep/Panlabs SafetyScreen-87

Muscarinic M1 = target: T12, Muscarinic M1 (Homo sapiens, UniProt P11229); assay: Cerep SafetyScreen-87; format: binding; conditions: n=2
T12 construct: purchased Eurofins Cerep/Panlabs SafetyScreen-87

Dopamine D1 = target: T13, Dopamine D1 (Homo sapiens, UniProt P21728); assay: Cerep SafetyScreen-87; format: binding; conditions: n=2
T13 construct: purchased Eurofins Cerep/Panlabs SafetyScreen-87

Tachykinin NK1 = target: T14, Tachykinin NK1 (Homo sapiens, UniProt P25103); assay: Cerep SafetyScreen-87; format: binding; conditions: n=2
T14 construct: purchased Eurofins Cerep/Panlabs SafetyScreen-87
T14 sequence (P25103 whole entry): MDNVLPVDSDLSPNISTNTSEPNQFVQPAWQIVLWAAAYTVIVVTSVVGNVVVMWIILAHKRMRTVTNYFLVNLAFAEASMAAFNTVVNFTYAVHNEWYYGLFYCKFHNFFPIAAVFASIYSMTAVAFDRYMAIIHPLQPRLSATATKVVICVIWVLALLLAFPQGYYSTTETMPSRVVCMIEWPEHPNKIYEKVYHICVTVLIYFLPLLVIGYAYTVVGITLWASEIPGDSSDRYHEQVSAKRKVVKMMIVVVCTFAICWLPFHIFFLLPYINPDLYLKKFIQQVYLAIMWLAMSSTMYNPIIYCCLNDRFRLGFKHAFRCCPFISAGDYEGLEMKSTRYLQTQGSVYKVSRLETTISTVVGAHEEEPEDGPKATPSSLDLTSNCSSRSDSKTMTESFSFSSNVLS

Chemokine CXCR2 (IL-8RB) = target: T15, Chemokine CXCR2 (IL-8RB) (Homo sapiens, UniProt P25025); assay: Cerep SafetyScreen-87; format: binding; conditions: n=2
T15 construct: purchased Eurofins Cerep/Panlabs SafetyScreen-87
T15 sequence (P25025 whole entry): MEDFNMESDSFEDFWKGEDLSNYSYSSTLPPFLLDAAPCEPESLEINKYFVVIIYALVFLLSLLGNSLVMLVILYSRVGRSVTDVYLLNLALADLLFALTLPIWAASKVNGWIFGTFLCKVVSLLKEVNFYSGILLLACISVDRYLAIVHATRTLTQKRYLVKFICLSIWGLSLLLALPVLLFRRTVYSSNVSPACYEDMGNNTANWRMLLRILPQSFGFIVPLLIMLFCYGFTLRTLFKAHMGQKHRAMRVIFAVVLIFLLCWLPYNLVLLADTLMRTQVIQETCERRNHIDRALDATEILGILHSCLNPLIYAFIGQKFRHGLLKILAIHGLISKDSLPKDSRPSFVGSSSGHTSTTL

[6] = target: T16, Leukotriene, Cysteinyl CysLT1 (Homo sapiens, UniProt Q9Y271); assay: Cerep SafetyScreen-87; format: binding; conditions: n=2
T16 construct: purchased Eurofins Cerep/Panlabs SafetyScreen-87

[7] = target: T17, Peptidase, Angiotensin Converting Enzyme (Oryctolagus cuniculus, UniProt P12822); assay: Cerep SafetyScreen-87; format: biochemical, rabbit; conditions: n=2
T17 construct: purchased Eurofins Cerep/Panlabs SafetyScreen-87

Cannabinoid CB2 = target: T18, Cannabinoid CB2 (Homo sapiens, UniProt P34972); assay: Cerep SafetyScreen-87; format: binding; conditions: n=2
T18 construct: purchased Eurofins Cerep/Panlabs SafetyScreen-87

Progesterone PR-B = target: T19, Progesterone PR-B (Homo sapiens, UniProt P06401); assay: Cerep SafetyScreen-87; format: binding; conditions: n=2
T19 construct: purchased Eurofins Cerep/Panlabs SafetyScreen-87

Adrenergic β1 = target: T20, Adrenergic β1 (Homo sapiens, UniProt P08588); assay: Cerep SafetyScreen-87; format: binding; conditions: n=2
T20 construct: purchased Eurofins Cerep/Panlabs SafetyScreen-87

Adrenergic α1A = target: T21, Adrenergic α1A (Rattus norvegicus, UniProt P43140); assay: Cerep SafetyScreen-87; format: binding; conditions: n=2
T21 construct: purchased Eurofins Cerep/Panlabs SafetyScreen-87

[8] = target: T22, Cholinesterase, Acetyl, ACES (Homo sapiens, UniProt P22303); assay: Cerep SafetyScreen-87; format: biochemical; conditions: n=2
T22 construct: purchased Eurofins Cerep/Panlabs SafetyScreen-87
T22 sequence (P22303 32-614): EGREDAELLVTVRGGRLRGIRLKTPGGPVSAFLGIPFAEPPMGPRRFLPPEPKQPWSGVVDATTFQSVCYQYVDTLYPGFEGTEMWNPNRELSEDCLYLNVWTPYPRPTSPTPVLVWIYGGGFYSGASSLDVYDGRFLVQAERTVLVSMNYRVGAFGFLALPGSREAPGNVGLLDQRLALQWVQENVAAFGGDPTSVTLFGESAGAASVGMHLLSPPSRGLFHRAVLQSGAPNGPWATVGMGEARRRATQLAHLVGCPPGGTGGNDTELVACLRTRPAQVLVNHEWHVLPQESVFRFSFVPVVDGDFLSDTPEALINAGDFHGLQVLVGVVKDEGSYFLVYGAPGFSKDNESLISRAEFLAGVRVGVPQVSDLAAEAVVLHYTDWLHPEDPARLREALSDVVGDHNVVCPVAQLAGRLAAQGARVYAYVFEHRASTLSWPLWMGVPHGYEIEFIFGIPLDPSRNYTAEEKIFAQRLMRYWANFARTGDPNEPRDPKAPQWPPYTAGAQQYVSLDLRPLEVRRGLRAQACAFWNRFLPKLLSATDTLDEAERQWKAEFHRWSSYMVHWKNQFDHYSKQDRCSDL

Glucocorticoid = target: T23, Glucocorticoid (Homo sapiens, UniProt P04150); assay: Cerep SafetyScreen-87; format: binding; conditions: n=2
T23 construct: purchased Eurofins Cerep/Panlabs SafetyScreen-87

Endothelin ETA = target: T24, Endothelin ETA (Homo sapiens, UniProt P25101); assay: Cerep SafetyScreen-87; format: binding; conditions: n=2
T24 construct: purchased Eurofins Cerep/Panlabs SafetyScreen-87

[9] = target: T25, Platelet Activating Factor (PAF) (Homo sapiens, UniProt P25105); assay: Cerep SafetyScreen-87; format: binding; conditions: n=2
T25 construct: purchased Eurofins Cerep/Panlabs SafetyScreen-87

PPARγ = target: T26, PPARγ (Homo sapiens, UniProt P37231); assay: Cerep SafetyScreen-87; format: binding; conditions: n=2
T26 construct: purchased Eurofins Cerep/Panlabs SafetyScreen-87

Adrenergic α1D = target: T27, Adrenergic α1D (Homo sapiens, UniProt P25100); assay: Cerep SafetyScreen-87; format: binding; conditions: n=2
T27 construct: purchased Eurofins Cerep/Panlabs SafetyScreen-87

Adenosine A2A = Adenosine A2A (Homo sapiens, UniProt P29274); format: cell-based; set-up: Cerep (contract assay) test=2527; conditions: functional assay, antagonist mode; read-out: adenosine A2A antagonism IC50
Cyclooxigenase COX-1 = target: T28, Cyclooxigenase COX-1 (Homo sapiens, UniProt P23219); assay: Cerep SafetyScreen-87; format: biochemical; conditions: n=2
T28 construct: purchased Eurofins Cerep/Panlabs SafetyScreen-87
T28 sequence (P23219 24-599): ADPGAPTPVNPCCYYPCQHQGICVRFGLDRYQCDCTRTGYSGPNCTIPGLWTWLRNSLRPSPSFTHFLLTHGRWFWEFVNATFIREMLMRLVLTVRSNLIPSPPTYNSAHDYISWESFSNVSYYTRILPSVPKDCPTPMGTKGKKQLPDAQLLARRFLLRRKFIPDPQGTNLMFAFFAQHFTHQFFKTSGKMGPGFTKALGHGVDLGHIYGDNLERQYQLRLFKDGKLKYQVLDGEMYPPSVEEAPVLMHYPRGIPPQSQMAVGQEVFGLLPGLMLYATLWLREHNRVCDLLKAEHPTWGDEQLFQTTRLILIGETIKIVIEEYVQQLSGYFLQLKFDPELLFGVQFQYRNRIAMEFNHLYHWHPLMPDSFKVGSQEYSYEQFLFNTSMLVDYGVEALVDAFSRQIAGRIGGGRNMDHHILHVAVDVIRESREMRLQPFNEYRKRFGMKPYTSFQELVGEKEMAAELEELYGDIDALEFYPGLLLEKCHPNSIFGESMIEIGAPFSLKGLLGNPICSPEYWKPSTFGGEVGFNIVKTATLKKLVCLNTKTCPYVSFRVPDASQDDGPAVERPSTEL

Chemokine CCR1 = target: T29, Chemokine CCR1 (Homo sapiens, UniProt P32246); assay: Cerep SafetyScreen-87; format: binding; conditions: n=2
T29 construct: purchased Eurofins Cerep/Panlabs SafetyScreen-87

Glutamate, NMDA, Glycine = Glutamate, NMDA, Glycine (Rattus norvegicus, UniProt P35439); assay: Cerep SafetyScreen-87; format: binding; conditions: n=2
Opiate µ (OP3, MOP) = target: T30, Opiate µ (OP3, MOP) (Homo sapiens, UniProt P35372); assay: Cerep SafetyScreen-87; format: binding; conditions: n=2
T30 construct: purchased Eurofins Cerep/Panlabs SafetyScreen-87

Monoamine Oxidase MAO-B = target: T31, Monoamine Oxidase MAO-B (Homo sapiens, UniProt P27338); assay: Cerep SafetyScreen-87; format: biochemical; conditions: n=2
T31 construct: purchased Eurofins Cerep/Panlabs SafetyScreen-87
T31 sequence (P27338 whole entry): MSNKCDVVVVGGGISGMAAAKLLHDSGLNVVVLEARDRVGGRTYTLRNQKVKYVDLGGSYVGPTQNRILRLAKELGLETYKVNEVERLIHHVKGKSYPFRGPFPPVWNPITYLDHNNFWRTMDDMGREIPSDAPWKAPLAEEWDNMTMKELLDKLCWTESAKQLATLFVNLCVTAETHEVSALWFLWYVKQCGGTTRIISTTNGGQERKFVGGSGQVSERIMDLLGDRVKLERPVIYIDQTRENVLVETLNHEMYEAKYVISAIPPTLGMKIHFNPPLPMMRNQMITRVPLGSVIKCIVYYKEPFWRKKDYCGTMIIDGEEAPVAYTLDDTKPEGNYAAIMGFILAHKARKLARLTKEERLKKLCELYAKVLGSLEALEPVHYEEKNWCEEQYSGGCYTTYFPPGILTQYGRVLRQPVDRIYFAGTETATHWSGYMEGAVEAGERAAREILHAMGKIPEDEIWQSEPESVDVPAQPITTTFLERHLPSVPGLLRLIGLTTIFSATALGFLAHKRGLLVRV

Cyclooxigenase COX-2 = target: T32, Cyclooxigenase COX-2 (Homo sapiens, UniProt P35354); assay: Cerep SafetyScreen-87; format: biochemical; conditions: n=2
T32 construct: purchased Eurofins Cerep/Panlabs SafetyScreen-87

Adenosine A1 = target: T33, Adenosine A1 (Homo sapiens, UniProt P30542); assay: Cerep SafetyScreen-87; format: binding; conditions: n=2
T33 construct: purchased Eurofins Cerep/Panlabs SafetyScreen-87

Muscarinic M3 = target: T34, Muscarinic M3 (Homo sapiens, UniProt P20309); assay: Cerep SafetyScreen-87; format: binding; conditions: n=2
T34 construct: purchased Eurofins Cerep/Panlabs SafetyScreen-87
T34 sequence (P20309 whole entry): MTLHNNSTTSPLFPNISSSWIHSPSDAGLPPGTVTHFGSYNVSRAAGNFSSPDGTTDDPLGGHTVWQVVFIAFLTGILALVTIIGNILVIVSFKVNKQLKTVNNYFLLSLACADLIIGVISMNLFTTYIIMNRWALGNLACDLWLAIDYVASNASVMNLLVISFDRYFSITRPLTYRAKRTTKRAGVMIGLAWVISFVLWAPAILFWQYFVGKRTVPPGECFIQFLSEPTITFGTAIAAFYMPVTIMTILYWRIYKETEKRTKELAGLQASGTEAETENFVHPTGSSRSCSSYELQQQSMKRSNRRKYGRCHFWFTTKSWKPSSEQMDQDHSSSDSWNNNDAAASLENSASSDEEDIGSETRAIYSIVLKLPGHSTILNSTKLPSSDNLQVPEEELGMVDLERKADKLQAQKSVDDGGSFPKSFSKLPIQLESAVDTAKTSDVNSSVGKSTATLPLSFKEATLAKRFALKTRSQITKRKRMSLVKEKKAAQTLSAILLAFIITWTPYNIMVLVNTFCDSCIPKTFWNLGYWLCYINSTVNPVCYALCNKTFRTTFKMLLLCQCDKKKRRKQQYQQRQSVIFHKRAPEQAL

Dopamine D2L = target: T35, Dopamine D2L (Homo sapiens, UniProt P14416); assay: Cerep SafetyScreen-87; format: binding; conditions: n=2
T35 construct: purchased Eurofins Cerep/Panlabs SafetyScreen-87

Bradykinin B2 = target: T36, Bradykinin B2 (Homo sapiens, UniProt P30411); assay: Cerep SafetyScreen-87; format: binding; conditions: n=2
T36 construct: purchased Eurofins Cerep/Panlabs SafetyScreen-87

[10] = target: T37, Transporter, Dopamine (DAT) (Homo sapiens, UniProt Q01959); assay: Cerep SafetyScreen-87; format: binding; conditions: n=2
T37 construct: purchased Eurofins Cerep/Panlabs SafetyScreen-87
T37 sequence (Q01959 whole entry): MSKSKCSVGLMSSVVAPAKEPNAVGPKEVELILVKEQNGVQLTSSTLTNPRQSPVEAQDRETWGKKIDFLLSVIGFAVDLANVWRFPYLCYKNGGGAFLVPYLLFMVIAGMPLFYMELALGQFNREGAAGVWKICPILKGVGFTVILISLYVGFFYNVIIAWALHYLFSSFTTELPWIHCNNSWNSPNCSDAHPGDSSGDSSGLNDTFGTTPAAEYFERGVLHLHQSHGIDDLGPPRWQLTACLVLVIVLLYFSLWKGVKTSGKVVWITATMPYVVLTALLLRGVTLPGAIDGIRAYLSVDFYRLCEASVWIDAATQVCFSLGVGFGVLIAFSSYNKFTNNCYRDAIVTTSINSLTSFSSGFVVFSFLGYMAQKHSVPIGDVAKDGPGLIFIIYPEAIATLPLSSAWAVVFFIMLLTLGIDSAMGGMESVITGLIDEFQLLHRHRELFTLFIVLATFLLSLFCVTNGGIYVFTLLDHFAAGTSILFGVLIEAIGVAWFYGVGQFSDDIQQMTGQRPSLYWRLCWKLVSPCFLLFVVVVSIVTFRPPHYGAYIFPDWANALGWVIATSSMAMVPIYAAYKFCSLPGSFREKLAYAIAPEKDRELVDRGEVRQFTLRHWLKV

[11] = target: T38, Transporter, Serotonin (5-Hydroxytryptamine) (SERT) (Homo sapiens, UniProt P31645); assay: Cerep SafetyScreen-87; format: binding; conditions: n=2
T38 construct: purchased Eurofins Cerep/Panlabs SafetyScreen-87
T38 sequence (P31645 whole entry): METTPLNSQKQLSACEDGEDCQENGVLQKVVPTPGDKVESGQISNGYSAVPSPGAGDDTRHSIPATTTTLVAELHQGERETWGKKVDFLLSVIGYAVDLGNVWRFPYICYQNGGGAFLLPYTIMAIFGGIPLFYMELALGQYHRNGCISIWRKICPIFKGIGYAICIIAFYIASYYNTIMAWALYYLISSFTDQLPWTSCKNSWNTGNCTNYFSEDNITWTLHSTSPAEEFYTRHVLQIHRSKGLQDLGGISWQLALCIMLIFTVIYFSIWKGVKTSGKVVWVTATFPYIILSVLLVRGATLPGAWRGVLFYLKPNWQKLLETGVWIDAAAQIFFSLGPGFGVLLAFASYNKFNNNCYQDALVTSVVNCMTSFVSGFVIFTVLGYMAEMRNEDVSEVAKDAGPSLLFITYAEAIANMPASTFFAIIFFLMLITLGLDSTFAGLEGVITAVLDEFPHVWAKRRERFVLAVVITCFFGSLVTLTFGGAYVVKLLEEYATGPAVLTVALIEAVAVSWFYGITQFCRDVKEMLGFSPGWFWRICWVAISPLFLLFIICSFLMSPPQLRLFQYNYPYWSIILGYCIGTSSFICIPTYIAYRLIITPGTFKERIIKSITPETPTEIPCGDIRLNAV

Opiate δ1 (OP1, DOP) = target: T39, Opiate δ1 (OP1, DOP) (Homo sapiens, UniProt P41143); assay: Cerep SafetyScreen-87; format: binding; conditions: n=2
T39 construct: purchased Eurofins Cerep/Panlabs SafetyScreen-87

For CCN1CCN(Cc2ccc3cc(C(=O)Nc4cc(NC(=O)c5ccc6c(c5)OCCO6)ccc4F)ccc3n2)CC1 [Compound 22, N-(5-(2,3-Dihydrobenzo[b][1,4]dioxine-6-carboxamido)-2-fluorophenyl)-2-((4-ethylpiperazin-1-yl)methyl)quinoline-6-carboxamide], the inhibition at 10 µM [1] was -2%, the inhibition at 10 µM [2] was -7% and the inhibition at 10 µM [3] was 55%. For the same molecule, the inhibition at 10 µM (Estrogen ERα) was -1%, the inhibition at 10 µM (Cannabinoid CB1) was 9% and the inhibition at 10 µM (Melanocortin MC1) was -3%. It also gave an inhibition at 10 µM [4] of 43%, an inhibition at 10 µM (Adrenergic β2) of 12% and an inhibition at 10 µM (Opiate K (OP2, KOP)) of 51%. The inhibition at 10 µM [5] was 9%, the inhibition at 10 µM (Histamine H1) was 36% and the inhibition at 10 µM (Muscarinic M1) was 43%. It also gave an inhibition at 10 µM (Dopamine D1) of 41%, an inhibition at 10 µM (Tachykinin NK1) of 14% and an inhibition at 10 µM (Chemokine CXCR2 (IL-8RB)) of 7%. For the same molecule, the inhibition at 10 µM [6] was 7%, the inhibition at 10 µM [7] was 13% and the inhibition at 10 µM (Cannabinoid CB2) was 79%. The inhibition at 10 µM (Progesterone PR-B) was 5%, the inhibition at 10 µM (Adrenergic β1) was 4% and the inhibition at 10 µM (Adrenergic α1A) was 38%. The inhibition at 10 µM [8] was 2%, the inhibition at 10 µM (Glucocorticoid) was 9% and the inhibition at 10 µM (Endothelin ETA) was -2%. For the same molecule, the inhibition at 10 µM [9] was […], the inhibition at 10 µM (PPARγ) was 11% and the inhibition at 10 µM (Adrenergic α1D) was 25%. For the same molecule, the IC50 (Adenosine A2A) was 2000 nM, the inhibition at 10 µM (Cyclooxigenase COX-1) was -24% and the inhibition at 10 µM (Chemokine CCR1) was 2%. The inhibition at 10 µM (Glutamate, NMDA, Glycine) was -24%, the inhibition at 10 µM (Opiate µ (OP3, MOP)) was 44% and the inhibition at 10 µM (Monoamine Oxidase MAO-B) was 36%. It also gave an inhibition at 10 µM (Cyclooxigenase COX-2) of -5%, an inhibition at 10 µM (Adenosine A1) of 11% and an inhibition at 10 µM (Muscarinic M3) of 30%. For the same molecule, the inhibition at 10 µM (Dopamine D2L) was 20%, the inhibition at 10 µM (Bradykinin B2) was 0% and the inhibition at 10 µM [10] was 38%. For the same molecule, the inhibition at 10 µM [11] was 25% and the inhibition at 10 µM (Opiate δ1 (OP1, DOP)) was 9%.
